Results taken from patent US12532889B2, “Herbicidal compositions comprising glufosinate” (BASF SE, priority 2023, dated 2026).
“And” between values parts separate entries of the source, which are not always exact repeats. Equal values may be shown once.

Experiments:
Test in all cases: Post-emergence application in field trials (Example A)
Format in all cases: in vivo
CYNDA (Cynodon dactylon) = settings: A-1 25, B-6 252 g ai/ha, 28 DAT, water 400 l/ha
How it was run: (§1)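 Field plots with natural or seeded weeds were treated post-emergence, solo or in mixtures. Damage was rated visually at stated days after treatment on a 0–100% scale against untreated plants; expected additive mixture activity calculated by the Colby method.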

GLXMA (Glycine max) = settings: 21 DAT; A-1 12.5 g ai/ha; growth stage 13; height 5-10 cm
How it was run: as §1

[1] = tested on: SETPA (Setaria palmifolia); settings: Table 5.3; SETPA growth stage 76-77; A-1 25, B-6 252 g ai/ha; 28 DAT; water 300 l/ha
How it was run: as §1

[2] = tested on: COMDI (Commelina diffusa); settings: Table 5.3; COMDI growth stage 76-77; A-1 25, B-6 252 g ai/ha; 28 DAT; water 300 l/ha
How it was run: as §1

[3] = tested on: HORVW (Hordeum vulgare (winter barley))
How it was run: as §1

AVESG (Avena strigosa) = settings: Table 1.6; AVESG growth stage 11-21, height 5-10 cm; A-1 25, B-2 400 g ai/ha; 14 DAT; water 200 l/ha
How it was run: as §1

ERISS (Erigeron sp.) = settings: Table 1.8, ERISS height 30-50 cm, 14 DAT, water 200 l/ha
How it was run: as §1

[4] = tested on: DIGHO (Digitaria horizontalis); settings: Table 1.4, DIGHO growth stage 24, 14 DAT, water 200 l/ha
How it was run: as §1

[5] = tested on: BOILF (Spermacoce latifolia); settings: Table 1.16, A-1 25, B-2 400 g ai/ha, 21 DAT, water 200 l/ha
How it was run: as §1

[6] = tested on: LOLMU (Lolium multiflorum)
How it was run: as §1

[7] = tested on: CYPKH (Cyperus kyllingia var. humilis); settings: Table 5.4; CYPKH growth stage 76-77, height 13-14 cm; A-1 25, B-6 252 g ai/ha; 28 DAT; water 400 l/ha
How it was run: as §1

[8] = tested on: POLCO (Polygonum convolvulus); settings: Table 3.2, A-1 12.5, B-2 500 g ai/ha, 14 DAT, water 100 l/ha
How it was run: as §1

[9] = tested on: DIGSA (Digitaria sanguinalis); settings: for % Herbicidal activity: A-1 12.5 g ai/ha, growth stage 22
How it was run: as §1

IPOTR (Ipomoea triloba) = settings: 21 DAT
How it was run: as §1

[10] = tested on: BRAPL (Brachiaria plantaginea); settings: BRAPL growth stage 24, A-1 50, B-2 400 g ai/ha, water 200 l/ha
How it was run: as §1

AVEFA (Avena fatua) = settings: Table 3.1; AVEFA growth stage 22-24, height 18-29 cm; A-1 12.5, B-2 500 g ai/ha; 28 DAT; water 100 l/ha
How it was run: as §1

ZEAMX (Zea mays) = tested on: ZEAMX (Zea mays)
How it was run: as §1

[11] = tested on: ECHCG (Echinocloa crus-galli)
How it was run: as §1

[12] = 7 DAT, A-1 12.5 g ai/ha, growth stage 23-29, height 20-25 cm
[13] = 7 DAT, A-1 18 g ai/ha, growth stage 23-29, height 20-25 cm
[14] = 21 DAT, A-1 12.5 g ai/ha, growth stage 23-29, height 20-25 cm
[15] = 21 DAT, A-1 18 g ai/ha, growth stage 23-29, height 20-25 cm
[16] = 42 DAT, A-1 18 g ai/ha, growth stage 15-16, height 27-33 cm
[17] = 21 DAT, A-1 12.5 g ai/ha, growth stage 23-30, height 15-20 cm
[18] = 21 DAT, A-1 18 g ai/ha, growth stage 23-30, height 15-20 cm

## CCOC(=O)COc1ccccc1Oc1nc(-n2c(=O)cc(C(F)(F)F)n(C)c2=O)c(F)cc1Cl [A-1, ethyl 2-[2-[[3-chloro-5-fluoro-6-[3-methyl-2,6-dioxo-4-(trifluoromethyl)pyrimidin-1-yl]-2-pyridyl]oxy]phenoxy]acetate]
CYNDA (Cynodon dactylon); Table 5.4, CYNDA growth stage 76-77, height 15-16 cm
  % herbicidal activity: 53%
CYNDA (Cynodon dactylon); Table 5.5, CYNDA growth stage 72
  % herbicidal activity: 72%
GLXMA (Glycine max)
  % herbicidal activity: 90%
[1]
  % herbicidal activity: 65%
[2]
  % herbicidal activity: 60%
[3]; [12]
  % Herbicidal activity: 60%
  % herbicidal activity: 60%
[3]; [13]
  % Herbicidal activity: 70%
  % herbicidal activity: 75%
[3]; [14]
  % Herbicidal activity: 90% and 60%
  % herbicidal activity: 70% and 60%
[3]; [15]
  % Herbicidal activity: 70%
  % herbicidal activity: 70% and 75%
[3]; Table 6.1, HORVW growth stage 23-29, height 20-25 cm, A-1 12.5, B-6 150 g ai/ha, 7 DAT, 200 l/ha water
  % herbicidal activity: 60%
[3]; Table 6.1, HORVW growth stage 23-29, height 20-25 cm, A-1 12.5, B-6 252 g ai/ha, 7 DAT, 200 l/ha water
  % herbicidal activity: 60%
[3]; Table 6.1, HORVW growth stage 23-29, height 20-25 cm, A-1 18, B-6 150 g ai/ha, 7 DAT, 200 l/ha water
  % herbicidal activity: 70%
[3]; Table 6.1, HORVW growth stage 23-29, height 20-25 cm, A-1 18, B-6 252 g ai/ha, 7 DAT, 200 l/ha water
  % herbicidal activity: 70%
AVESG (Avena strigosa)
  % herbicidal activity: 78%
ERISS (Erigeron sp.); A-1 25, B-2 400 g ai/ha
  % herbicidal activity: 13%
ERISS (Erigeron sp.); A-1 50, B-2 400 g ai/ha
  % herbicidal activity: 18%
[4]; A-1 25, B-2 400 g ai/ha
  % herbicidal activity: 57%
[4]; A-1 50, B-2 400 g ai/ha
  % herbicidal activity: 65%
[5]
  % herbicidal activity: 72%
[6]; 7 DAT, A-1 12.5 g ai/ha, growth stage 22-25, height 20-25 cm
  % herbicidal activity: 70%
[6]; 21 DAT, A-1 12.5 g ai/ha, growth stage 22-25, height 20-25 cm
  % herbicidal activity: 70%
[6]; Table 1.28, LOLMU growth stage 11-23, height 5-10 cm, A-1 25, B-2 400 g ai/ha, 28 DAT, water 200 l/ha
  % herbicidal activity: 43%
[6]; Table 6.1, LOLMU growth stage 22-25, height 20-25 cm, A-1 12.5, B-6 252 g ai/ha, 7 DAT, 200 l/ha water
  % herbicidal activity: 40%
[6]; Table 6.1, LOLMU growth stage 22-25, height 20-25 cm, A-1 18, B-6 252 g ai/ha, 7 DAT, 200 l/ha water
  % herbicidal activity: 50%
[7]
  % herbicidal activity: 61%
[8]
  % herbicidal activity: 90%
[9]; 7 DAT, height 10-15 cm
  % Herbicidal activity: 75%
[9]; 21 DAT, height 10-15 cm
  % Herbicidal activity: 70%
[9]; 21 DAT, A-1 18 g ai/ha, growth stage 21-22, height 10-15 cm
  % herbicidal activity: 35%
[9]; 41 DAT, height 10-15 cm
  % Herbicidal activity: 55%
[9]; 42 DAT, height 10-15 cm
  % Herbicidal activity: 55%
[9]; Table 4.1, DIGSA height 2-8 cm, A-1 12.5, B-2 655 g ai/ha, 21 DAT, water 140 l/ha
  % herbicidal activity: 27%
[9]; Table 4.1, DIGSA height 2-8 cm, A-1 25, B-2 655 g ai/ha, 21 DAT, water 140 l/ha
  % herbicidal activity: 28%
[9]; Table 4.1, DIGSA height 2-8 cm, A-1 50, B-2 655 g ai/ha, 21 DAT, water 140 l/ha
  % herbicidal activity: 55%
[9]; Table 6.1, DIGSA growth stage 21-22, height 10-15 cm, A-1 18, B-6 252 g ai/ha, 7 DAT, 200 l/ha water
  % herbicidal activity: 40%
IPOTR (Ipomoea triloba); Table 1.11, A-1 25, B-2 400 g ai/ha, water 100 l/ha
  % herbicidal activity: 85%
IPOTR (Ipomoea triloba); Table 1.16, A-1 25, B-2 400 g ai/ha, water 200 l/ha
  % herbicidal activity: 82%
[10]; Table 1.18, 21 DAT
  % herbicidal activity: 42%
[10]; Table 1.4, 14 DAT
  % herbicidal activity: 85%
AVEFA (Avena fatua)
  % herbicidal activity: 70%
ZEAMX (Zea mays); 7 DAT, A-1 12.5 g ai/ha, growth stage 15-16, height 50-60 cm
  % herbicidal activity: 80%
ZEAMX (Zea mays); 21 DAT, A-1 12.5 g ai/ha, growth stage 15-16, height 27-33 cm
  % Herbicidal activity: 35%
ZEAMX (Zea mays); 21 DAT, A-1 12.5 g ai/ha, growth stage 15-16, height 50-60 cm
  % herbicidal activity: 70%
ZEAMX (Zea mays); 28 DAT, A-1 12.5 g ai/ha, growth stage 15-16, height 50-60 cm
  % herbicidal activity: 50%
ZEAMX (Zea mays); 42 DAT, A-1 12.5 g ai/ha, growth stage 15-16, height 27-33 cm
  % Herbicidal activity: 20%
ZEAMX (Zea mays); [16]
  % Herbicidal activity: 30%
  % herbicidal activity: 20%
ZEAMX (Zea mays); Table 1.12, ZEAMX volunteer corn, A-1 50, B-2 400 g ai/ha, 21 DAT, water 100 l/ha
  % herbicidal activity: 83%
ZEAMX (Zea mays); Table 6.1, ZEAMX growth stage 15-16, height 50-60 cm, A-1 18, B-6 252 g ai/ha, 7 DAT, 200 l/ha water
  % herbicidal activity: 85%
[11]; 7 DAT, A-1 12.5 g ai/ha, growth stage 23-30, height 15-20 cm
  % herbicidal activity: 20%
[11]; 7 DAT, A-1 18 g ai/ha, growth stage 23-30, height 15-20 cm
  % herbicidal activity: 40%
[11]; [17]
  % Herbicidal activity: 30% and 20%
  % herbicidal activity: 20% and 30%
[11]; [18]
  % Herbicidal activity: 30%
  % herbicidal activity: 30% and 40%
[11]; 28 DAT, A-1 12.5 g ai/ha, growth stage 23-30, height 15-20 cm
  % Herbicidal activity: 20%
[11]; 28 DAT, A-1 18 g ai/ha, growth stage 23-30, height 15-20 cm
  % Herbicidal activity: 30%
[11]; Table 6.1, ECHCG growth stage 23-30, height 15-20 cm, A-1 12.5, B-6 150 g ai/ha, 7 DAT, 200 l/ha water
  % herbicidal activity: 20%
[11]; Table 6.1, ECHCG growth stage 23-30, height 15-20 cm, A-1 12.5, B-6 252 g ai/ha, 7 DAT, 200 l/ha water
  % herbicidal activity: 20%
[11]; Table 6.1, ECHCG growth stage 23-30, height 15-20 cm, A-1 18, B-6 150 g ai/ha, 7 DAT, 200 l/ha water
  % herbicidal activity: 30%
[11]; Table 6.1, ECHCG growth stage 23-30, height 15-20 cm, A-1 18, B-6 252 g ai/ha, 7 DAT, 200 l/ha water
  % herbicidal activity: 40%
